In BindingDB's records for doi:10.1016/j.bmc.2020.115681 (Takeda Pharmaceuticals International, 2020):

Assays:
[1] = molecular target: T1, Ubiquitin-like modifier-activating enzyme ATG7 (Homo sapiens, UniProt O95352); assay: Inhibition of recombinant His-tagged human ATG7 incubated for 105 mins in presence of GST-tagged ATG3 and Flag-tagged Gabarap and measured after 2 hrs by FRET assay relative to control
T1 sequence (O95352 whole entry): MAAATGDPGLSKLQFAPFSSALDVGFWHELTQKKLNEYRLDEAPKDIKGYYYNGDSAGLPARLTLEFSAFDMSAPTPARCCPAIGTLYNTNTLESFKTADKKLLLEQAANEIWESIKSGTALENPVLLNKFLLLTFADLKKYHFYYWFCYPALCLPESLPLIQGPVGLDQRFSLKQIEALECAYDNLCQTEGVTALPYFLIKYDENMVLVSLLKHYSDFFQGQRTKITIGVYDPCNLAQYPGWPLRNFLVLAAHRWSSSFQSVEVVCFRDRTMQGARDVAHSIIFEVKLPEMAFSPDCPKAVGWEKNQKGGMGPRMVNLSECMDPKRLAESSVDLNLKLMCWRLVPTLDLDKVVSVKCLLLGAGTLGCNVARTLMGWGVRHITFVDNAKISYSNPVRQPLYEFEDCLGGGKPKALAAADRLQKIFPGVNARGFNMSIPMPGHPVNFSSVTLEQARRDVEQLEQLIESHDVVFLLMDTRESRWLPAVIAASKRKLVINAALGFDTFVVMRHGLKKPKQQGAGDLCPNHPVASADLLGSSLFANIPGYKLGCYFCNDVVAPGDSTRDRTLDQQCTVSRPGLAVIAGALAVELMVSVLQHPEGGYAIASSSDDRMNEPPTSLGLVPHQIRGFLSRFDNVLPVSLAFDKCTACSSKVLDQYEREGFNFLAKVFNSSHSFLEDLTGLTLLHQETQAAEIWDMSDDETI

[2] = molecular target: T1, Ubiquitin-like modifier-activating enzyme ATG7; assay: Inhibition of ATG7 in human 293HEK cells assessed as inhibition of ATG7:ATG8 thioester formation after 4 hrs by Western blot analysis

| IC50 [1] [nM] | IC50 [2] [nM] | Compound |
| --- | --- | --- |
| 35 | – | Cc1cccc(Sc2nn([C@@H]3O[C@H](COS(N)(=O)=O)[C@@H](O)[C@@H]3F)c3ncnc(N)c23)c1 [[(2R,3R,4S,5R)-5-{4-amino-3-[(3-methylphenyl)sulfanyl]-1H-pyrazolo[3,4-d]pyrimidin-1-yl}-4-fluoro-3-hydroxytetrahydrofuran-2-yl]methyl sulfamate] |
| – | 295 | CSc1nn([C@H]2C[C@H](O)[C@H](COS(N)(=O)=O)O2)c2ncnc(N)c12 [{(2S,3S,5R)-5-[4-amino-3-(methylsulfanyl)-1H-pyrazolo[3,4-d]pyrimidin-1-yl]-3-hydroxytetrahydrofuran-2-yl}methyl sulfamate] |
